# Molecular target: human 11β-HSD1 microsome fraction (Homo sapiens, UniProt P28845)
# Test: Enzymatic 11Beta-HSD1 test (SPA-based detection)
# Format: biochemical
# Settings: human 11β-HSD1 microsomes, [1,2-3H]-cortisone, NADPH, 37° C. 1 hour
# Protocol: Enzymatic 11Beta-HSD1 Test:
# To measure the activity of the compounds, an SPA-based detection method (Solly et al. 2005) was employed. First of all, 20 μl of the human 11β-HSD1 microsome fraction (0.2 μg of protein), prepared in 50 mM HEPES, 0.1% BSA (w/v), were applied to a plate with 384 wells. The test compounds (0.09 μl) were applied to the assay plate in 100% DMSO. The reaction was started by addition of 20 μl of [1,2-^3H]-cortisone (0.1 μCi/[…]) in assay buffer comprising 25 mM HEPES, 100 mM KCl, 5 mM NaCl, 2 mM MgCl2 and 0.25 mM NADPH. The plate was agitated at 37° C. for 1 hour. At the same time, a stop solution comprising 20 mg/ml SPA-PVT beads, 1.6 mg/ml monoclonal cortisol antibody and 0.01 mM SSR110887 (inhibitor from the Biovitrium patent) in 50 mM HEPES, 1 M NaCl and 1 M KCl was stirred at room temperature. To stop the reaction, 25 μl of the stop solution were added to each well. The plate was agitated gently at room temperature for 1 further hour and then centrifuged at 500 gav for 1 minute, in order that the SPA beads could settle out. The plate was then read in a Wallac-1450-Microbeta unit with a standard SPA program (counting time 1 min/well). The comparative compound was glycyrrhetinic acid.
# Protein and radioactive substrate were dispensed with a Biomek FX unit (Beckman Coulter) for handling liquids. The test compounds were added with a Cybi-Well equipped with a 90 nl pin tool (CyBio).
# Lit.: Solly S, Mundt S S, Zokian H J, Juy-Fang Ding G, Hermanowski-Vosatka A, Strulovici B and Zheng W. High-throughput screening of 11β-Hydroxysteroid dehydrogenase type 1 in scintillation proximity format. Assay Drug Dev Technol 2005; 3:377-384.
# human 11β-HSD1 microsome fraction, sequence (P28845 whole entry): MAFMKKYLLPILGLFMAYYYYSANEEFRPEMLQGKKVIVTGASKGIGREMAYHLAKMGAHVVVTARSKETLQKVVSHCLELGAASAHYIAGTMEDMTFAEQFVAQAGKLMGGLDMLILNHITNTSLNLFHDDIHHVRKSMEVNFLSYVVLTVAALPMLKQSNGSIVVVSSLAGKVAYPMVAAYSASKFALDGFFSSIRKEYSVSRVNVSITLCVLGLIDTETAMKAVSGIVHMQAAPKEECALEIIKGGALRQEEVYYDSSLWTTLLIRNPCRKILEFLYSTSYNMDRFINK
row,IC50,Structure (SMILES)
1,0.014 µM,"CC1(C)OC(NC23CC4CC(CC2C4)C3)=NS(=O)(=O)[C@H]1c1ccc(-c2cccc(C(=O)O)c2)cc1 [Example 1, 4′-[(S)-2-(Hexahydro-2,5-methanopentalen-3a-ylamino)-6,6-dimethyl-4,4-dioxo-5,6-dihydro-4H-4lambda6-[1,4,3]oxathiazin-5-yl]-biphenyl-3-carboxylic acid]"
2,0.024 µM,"CC1(C)OC(NC23CC4CC(CC2C4)C3)=NS(=O)(=O)[C@H]1c1ccc(C2CCN(CCC(F)(F)F)CC2)cc1 [Example 2, ((S)-6,6-Dimethyl-4,4-dioxo-5-{4-[1-(3,3,3-trifluoropropyl)-piperidin-4-yl]phenyl}-5,6-dihydro-4H-4lambda6-[1,4,3]oxathiazin-2-yl)-(hexahydro-2,5-methanopentalen-3a-yl)amine]"
3,0.034 µM,"CC1(C)OC(NC23CC4CC2CC(C(N)=O)(C4)C3)=NS(=O)(=O)[C@@H]1c1ccc(-c2ccccc2)cc1 (stereo partly drawn) [Example 4, 3a-((R)-5-Biphenyl-4-yl-6,6-dimethyl-4,4-dioxo-5,6-dihydro-4H-4lambda6-[1,4,3]oxathiazin-2-ylamino)hexahydro-2,5-methane-pentalene-2-carboxamide]"
4,0.022 µM,"CC1(C)OC(NC23CC4CC2CC(C(N)=O)(C4)C3)=NS(=O)(=O)[C@@H]1c1ccc(Br)cc1 (stereo partly drawn) [Example 3, 3a-[(R)-5-(4-Bromophenyl)-6,6-dimethyl-4,4-dioxo-5,6-dihydro-4H-4lambda6-[1,4,3]oxathiazin-2-ylamino]hexahydro-2,5-methanopentalene-2-carboxamide]"

# Source: US8809324B2, “Substituted phenyl-oxathiazine derivatives, method for producing them, drugs containing said compounds and the use thereof” (Sanofi, priority 2011, dated 2014)
